According to ChEMBL document CHEMBL2040736, “Design of potent and selective hybrid inhibitors of the mitotic kinase Nek2: structure-activity relationship, structural biology, and cellular activity” (J Med Chem, 2012):

Columns and labels:
[1] = target: T1, Serine/threonine-protein kinase Nek2 (Homo sapiens, UniProt P51955)
T1 sequence (P51955 whole entry): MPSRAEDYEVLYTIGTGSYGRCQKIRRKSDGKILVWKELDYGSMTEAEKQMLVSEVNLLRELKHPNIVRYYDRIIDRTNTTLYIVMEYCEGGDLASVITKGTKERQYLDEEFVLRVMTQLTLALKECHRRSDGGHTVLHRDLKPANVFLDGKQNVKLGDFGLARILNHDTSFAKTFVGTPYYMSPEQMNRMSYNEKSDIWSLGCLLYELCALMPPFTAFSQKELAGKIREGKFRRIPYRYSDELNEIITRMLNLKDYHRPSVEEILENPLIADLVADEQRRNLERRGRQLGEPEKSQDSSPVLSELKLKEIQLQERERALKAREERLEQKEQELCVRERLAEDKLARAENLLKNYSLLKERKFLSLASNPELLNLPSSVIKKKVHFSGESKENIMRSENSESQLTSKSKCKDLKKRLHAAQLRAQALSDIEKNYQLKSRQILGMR

[2] = target: Serine/threonine-protein kinase PLK1 (Homo sapiens, UniProt P53350); experiment: Inhibition of Plk1 using 5-FAMRRRAGALMDASFEEQ- CONH2 as substrate after 75 mins by caliper method
Sequence of Serine/threonine-protein kinase PLK1 (P53350 whole entry): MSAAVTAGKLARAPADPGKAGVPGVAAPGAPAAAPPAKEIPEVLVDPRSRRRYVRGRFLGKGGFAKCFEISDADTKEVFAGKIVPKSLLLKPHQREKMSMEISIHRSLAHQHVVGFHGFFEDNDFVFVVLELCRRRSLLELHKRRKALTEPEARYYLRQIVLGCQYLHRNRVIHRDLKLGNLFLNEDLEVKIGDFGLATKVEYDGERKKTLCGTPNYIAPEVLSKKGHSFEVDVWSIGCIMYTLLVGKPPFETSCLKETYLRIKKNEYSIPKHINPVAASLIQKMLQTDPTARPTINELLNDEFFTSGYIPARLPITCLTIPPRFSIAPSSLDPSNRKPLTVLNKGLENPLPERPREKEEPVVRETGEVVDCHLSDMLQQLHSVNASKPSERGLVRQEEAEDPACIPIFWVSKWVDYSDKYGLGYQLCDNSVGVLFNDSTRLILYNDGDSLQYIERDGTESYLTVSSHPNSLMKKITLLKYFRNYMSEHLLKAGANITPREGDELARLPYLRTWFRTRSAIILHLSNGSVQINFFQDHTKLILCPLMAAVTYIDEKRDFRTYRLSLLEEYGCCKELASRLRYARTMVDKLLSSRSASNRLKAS

[3] = target: T1, Serine/threonine-protein kinase Nek2; conditions: u2os
Description: Inhibition of Nek2-mediated C-Nap1 phosphorylation in human U2OS cells after 3 hrs by immunofluorescence microscopy

HeLa = experiment: Growth inhibition of human HeLa cells after 92 hrs by CellTiter-Blue assay; assay type: functional
Aurora kinase A = target: T2, Aurora kinase A (Homo sapiens, UniProt O14965); experiment: Inhibition of Aurora A kinase by caliper method
T2 sequence (O14965 whole entry): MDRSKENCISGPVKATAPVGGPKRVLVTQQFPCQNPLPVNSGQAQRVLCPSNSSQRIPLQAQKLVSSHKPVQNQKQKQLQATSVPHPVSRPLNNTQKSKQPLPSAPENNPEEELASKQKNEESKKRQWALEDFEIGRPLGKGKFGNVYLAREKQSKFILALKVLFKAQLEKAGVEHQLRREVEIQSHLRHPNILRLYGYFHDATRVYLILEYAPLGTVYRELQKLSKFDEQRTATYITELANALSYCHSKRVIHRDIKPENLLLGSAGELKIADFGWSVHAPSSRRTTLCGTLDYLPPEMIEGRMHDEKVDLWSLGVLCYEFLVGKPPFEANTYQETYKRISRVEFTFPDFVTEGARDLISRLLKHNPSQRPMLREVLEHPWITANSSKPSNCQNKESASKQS

U2OS = experiment: Growth inhibition of human U2OS cells after 92 hrs by CellTiter-Blue assay; assay type: functional
MCF7 = experiment: Growth inhibition of human MCF7 cells after 92 hrs by CellTiter-Blue assay; assay type: functional; conditions: MCF7, 92 h
MDA-MB-231 = experiment: Growth inhibition of human MDA-MB-231 cells after 92 hrs by CellTiter-Blue assay; assay type: functional; conditions: MDA-MB-231, 92 h
[4] = target: Cyclin-dependent kinase 2 (Homo sapiens, UniProt P24941); experiment: Inhibition of CDK2 by caliper method
[5] = target: T3, Dual specificity protein kinase TTK (Homo sapiens, UniProt P33981); experiment: Inhibition of MPS1 by caliper method
T3 sequence (P33981 whole entry): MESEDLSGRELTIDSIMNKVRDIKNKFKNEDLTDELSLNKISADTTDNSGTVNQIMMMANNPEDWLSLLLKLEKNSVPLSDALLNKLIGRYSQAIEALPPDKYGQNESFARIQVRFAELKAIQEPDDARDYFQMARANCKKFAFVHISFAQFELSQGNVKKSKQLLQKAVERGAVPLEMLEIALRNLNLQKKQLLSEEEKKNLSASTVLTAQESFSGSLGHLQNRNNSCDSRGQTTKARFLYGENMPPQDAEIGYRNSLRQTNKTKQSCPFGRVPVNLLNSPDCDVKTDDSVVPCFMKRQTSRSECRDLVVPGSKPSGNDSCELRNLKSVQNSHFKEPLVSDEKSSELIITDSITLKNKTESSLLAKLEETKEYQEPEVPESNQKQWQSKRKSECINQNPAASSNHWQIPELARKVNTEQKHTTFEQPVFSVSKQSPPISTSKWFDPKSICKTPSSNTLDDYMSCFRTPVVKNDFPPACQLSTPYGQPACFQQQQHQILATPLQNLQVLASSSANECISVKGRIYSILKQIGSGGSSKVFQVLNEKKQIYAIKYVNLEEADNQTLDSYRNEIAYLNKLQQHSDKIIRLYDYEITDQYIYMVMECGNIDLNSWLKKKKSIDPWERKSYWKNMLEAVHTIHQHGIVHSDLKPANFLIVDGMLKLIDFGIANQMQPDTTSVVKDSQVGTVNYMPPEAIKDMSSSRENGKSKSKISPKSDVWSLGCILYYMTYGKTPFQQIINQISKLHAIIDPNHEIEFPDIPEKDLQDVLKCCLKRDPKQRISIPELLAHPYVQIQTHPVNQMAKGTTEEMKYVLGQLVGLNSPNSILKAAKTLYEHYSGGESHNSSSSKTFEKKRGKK

[6] = Drug metabolism in mouse liver microsomes after 30 mins; assay type: ADME, Microsome; conditions: read-out: Drug metabolism
[7] = Permeability of the compound by PAMPA assay; assay type: ADME

Structure (SMILES): CC(Oc1cc(-c2cc(-c3ccc(CN4CCOCC4)s3)cnc2N)ccc1C(N)=O)c1ccccc1C(F)(F)F (racemic)
- IC50 [1]: 0.318 µM

Structure (SMILES): CC(Oc1cc(-c2nc(-c3ccc(CN(C)C)cc3)cnc2N)ccc1C(N)=O)c1ccccc1C(F)(F)F (racemic)
- IC50 [1]: 0.79 µM
- IC50 [2]: 3.9 µM

Structure (SMILES): C[C@@H](/C=C\C(F)(F)F)Oc1cc(-c2cc(-c3cc(CN(C)C)cs3)cnc2N)ccc1C(N)=O
- IC50 [3]: Not Active
- GI50 (HeLa): 0.44 µM
- IC50 [1]: 1.8 µM
- IC50 (Aurora kinase A): 2.33 µM
- GI50 (U2OS): 2.17 µM
- GI50 (MCF7): 5.42 µM
- IC50 [2]: > 50 µM
- GI50 (MDA-MB-231): 7.25 µM
- IC50 [4]: 0.53 µM
- IC50 [5]: 7.12 µM

Structure (SMILES): CC(Oc1cc(-c2cc(-c3ccc(CN(C)C)cc3)cnc2N)ccc1C(N)=O)c1ccccc1C(F)(F)F (racemic)
- IC50 [1]: 0.12 µM
- IC50 (Aurora kinase A): 7.93 µM
- IC50 [2]: 1.56 µM
- IC50 [4]: 2.74 µM
- IC50 [5]: 3.06 µM

Structure (SMILES): CC(Oc1cc(-c2cc(-c3cccs3)cnc2N)ccc1C(N)=O)c1ccccc1C(F)(F)F (racemic)
- IC50 [1]: 9 µM

Structure (SMILES): COc1cc(-c2cc(-c3cccs3)cnc2N)ccc1C(N)=O
- IC50 [1]: 10.5 µM

Structure (SMILES): CC(Oc1cc(-c2cc(-c3cc(CN(C)C)cs3)cnc2N)ccc1C(N)=O)c1ccccc1C(F)(F)F (racemic)
- metabolised at 0.5 h [6]: 87%
- IC50 [2]: 1.32 µM

Structure (SMILES): CC(Oc1cc(-c2nc(-c3cccc(CN(C)C)c3)cnc2N)ccc1C(N)=O)c1ccccc1C(F)(F)F (racemic)
- IC50 [1]: 2.47 µM
- IC50 [2]: 12.1 µM

Structure (SMILES): CC(Oc1cc(-c2cc(-c3cccc(CN(C)C)c3)cnc2N)ccc1C(N)=O)c1ccccc1C(F)(F)F (racemic)
- IC50 [1]: 0.21 µM
- IC50 [2]: 3.29 µM

Structure (SMILES): CC(Oc1cc(-c2cc(-c3ccc(CN4CCCCC4)s3)cnc2N)ccc1C(N)=O)c1ccccc1C(F)(F)F (racemic)
- IC50 [1]: 0.093 µM

Structure (SMILES): CC(Oc1cc(-c2nc(-c3ccc(CN(C)C)s3)cnc2N)ccc1C(N)=O)c1ccccc1C(F)(F)F (racemic)
- IC50 [1]: 2.68 µM

Structure (SMILES): CC(Oc1cc(-c2cc(-c3ccc(CN(C)C)s3)cnc2N)ccc1C(N)=O)c1ccccc1C(F)(F)F (racemic)
- IC50 [1]: 0.047 µM
- IC50 [2]: 0.5 µM

Structure (SMILES): CC(/C=C\C(F)(F)F)Oc1cc(-c2cc(-c3cc(CN(C)C)cs3)cnc2N)ccc1C(N)=O (racemic)
- metabolised at 0.5 h [6]: 95%
- IC50 [1]: 0.073 µM
- IC50 [2]: 8.41 µM
- permeability [7]: 27.6 ×10⁻⁶ cm/s

Structure (SMILES): CC(Oc1cc(-n2cnc3cc(OC4CCN(C)CC4)ccc32)ccc1C(N)=O)c1ccccc1C(F)(F)F (racemic)
- IC50 [3]: Not Active
- GI50 (HeLa): 1.2 µM
- GI50 (U2OS): 2.96 µM
- GI50 (MCF7): 2.03 µM
- GI50 (MDA-MB-231): 4.95 µM

Structure (SMILES): Cc1cc(CN(C)C)sc1-c1cnc(N)c(-c2ccc(C(N)=O)c(OC(C)c3ccccc3C(F)(F)F)c2)c1 (racemic)
- IC50 [1]: 0.058 µM

Structure (SMILES): C[C@@H](Oc1cc(-c2cc(-c3cc(CN(C)C)cs3)cnc2N)ccc1C(N)=O)c1ccccc1C(F)(F)F
- GI50 (HeLa): 0.14 µM
- IC50 (Aurora kinase A): 8.81 µM
- GI50 (U2OS): 0.48 µM
- GI50 (MCF7): 0.22 µM
- IC50 [2]: 0.82 µM
- GI50 (MDA-MB-231): 0.95 µM
- IC50 [4]: 26.6 µM
- IC50 [5]: 4.81 µM

Structure (SMILES): COc1cc(-c2cc(-c3cc(CN(C)C)cs3)cnc2N)ccc1C(N)=O
- IC50 [1]: 2.26 µM

Structure (SMILES): CC(Oc1cc(-c2nc(-c3cc(CN(C)C)cs3)cnc2N)ccc1C(N)=O)c1ccccc1C(F)(F)F (racemic)
- IC50 [1]: 2.63 µM

Structure (SMILES): Cc1cc(-c2cnc(N)c(-c3ccc(C(N)=O)c(OC(C)c4ccccc4C(F)(F)F)c3)c2)sc1CN(C)C (racemic)
- IC50 [1]: 0.047 µM
